Results reported in the NIST ThermoML archive (doi:10.1016/j.tca.2008.11.005).

Details: Liquid

C[SiH]1O[SiH](C)O[SiH](C)O[SiH](C)O[SiH](C)O1 (stereo not given) [2,4,6,8,10-pentamethylcyclopentasiloxane]
Details	vapor or sublimation pressure [kPa]
330.8 K	1.325
348.03 K	3.325
357.45 K	5.325
364.75 K	7.325
370.73 K	9.325
375.49 K	11.32
378.23 K	13.32
381.78 K	15.32
385.02 K	17.32
387.96 K	19.32
390.75 K	21.32
393.18 K	23.32
395.46 K	25.32
397.89 K	27.32
399.92 K	29.32
401.9 K	31.32
403.77 K	33.33
405.7 K	35.33
407.22 K	37.33
408.94 K	39.33
410.46 K	41.33
411.98 K	43.33
413.4 K	45.33
414.87 K	47.33
416.19 K	49.33
417.55 K	51.33
423.53 K	61.33
429.06 K	71.33
433.77 K	81.33
437.93 K	91.33

CCO [ethanol]
Details	vapor or sublimation pressure [kPa]
303.95 K	11.32
315.75 K	21.32
323.5 K	31.32
329.35 K	41.33
334.05 K	51.33
338.05 K	61.33
341.65 K	71.33
344.75 K	81.33
347.55 K	91.33
350.15 K	101.33
